Test results taken from patent US9840478B2 (MERCK SHARP & DOHME CORP., priority 2013, dated 2017).

These compounds were tested on HIV-1 (H9IIIB strain) (assay: Cell-based HIV infection assay using a reporter (Cell-Based), MT4-GFP cells). Conditions: Human immunodeficiency virus 1, MT4-GFP cells infected with HIV-1 H9IIIB; 50% normal human serum; mean of at least two independent experiments; read-out: Cell-based IP.
How it was run: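 MT4-GFP cells (HIV LTR-driven GFP) infected 24 h with HIV-1 H9IIIB at low MOI, then washed and plated with compounds in RPMI + 50% normal human serum, 0.4% DMSO final. Green cells counted at 24 and 48 h; R0 = 48 h/24 h ratio, inhibition normalized to DMSO and triple-drug control; IC50 from 4-parameter fit.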

**Q.** How did the IC50 turn out when COC(=O)N[C@H](C(=O)Nc1cncc(F)c1CC[C@H]1CNC[C@H](C)N1S(=O)(=O)C1CC1)[C@@H](c1ccc(Cl)cc1)C(C)C [Example 179, (βR)-4-chloro-N-(4-{2-[(2S,6S)-1-(cyclopropylsulfonyl)-6-methylpiperazin-2-yl]ethyl}-5-fluoropyridin-3-yl)-Nα-(methoxycarbonyl)-β-(1-methylethyl)-L-phenylalaninamide] was run?
**A.** 33 nM

**Q.** How did the IC50 turn out when COC(=O)N[C@H](C(=O)Nc1cccc(F)c1CC[C@H]1CNC[C@H](C)N1S(=O)(=O)C1CC1)[C@@H](c1ccc(Cl)cc1)C(C)C [Example 144, (βR)-4-chloro-N-(2-{2-[(2S,6S)-1-(cyclopropylsulfonyl)-6-methylpiperazin-2-yl]ethyl}-3-fluorophenyl)-Nα-(methoxycarbonyl)-β-(1-methylethyl)-L-phenylalaninamide] was run?
**A.** 93 nM

**Q.** How did the IC50 turn out when C[C@@H]1CNC[C@H](CCc2c(F)cccc2NC(=O)[C@@H](N)[C@@H](c2ccc(F)cc2)c2cc(F)cc(F)c2)N1S(=O)(=O)c1ccc(OC(F)(F)F)cc1 [Example 255, (βS)-β-(3,5-difluorophenyl)-4-fluoro-N-(3-fluoro-2-{2-[(2S,6R)-6-methyl-1-{[4-(trifluoromethoxy)phenyl]sulfonyl}piperazin-2-yl]ethyl}phenyl)-L-phenylalaninamide] was run?
**A.** 59 nM

**Q.** C[C@@H]1CNC[C@H](CCc2c(F)cccc2NC(=O)[C@@H](N)[C@@H](c2ccc(Cl)cc2)C2CCOCC2)N1S(=O)(=O)c1ccc(C(F)F)cc1 [Example 264, (βR)-4-chloro-N-(2-{2-[(2S,6R)-1-{[4-(difluoromethyl)phenyl]sulfonyl}-6-methylpiperazin-2-yl]ethyl}-3-fluorophenyl)-β-(tetrahydro-2H-pyran-4-yl)-L-phenylalaninamide] was tested. Which IC50 did it give?
**A.** 69 nM

**Q.** For N[C@H](C(=O)Nc1cncc(F)c1CC[C@H]1CNCCN1S(=O)(=O)N1CCCC1)[C@@H](c1ccc(F)cc1)c1cc(F)cc(F)c1 [Example 83, (βS)-3,5-difluoro-β-(4-fluorophenyl)-N-(5-fluoro-4-{2-[(2S)-1-(pyrrolidin-1-ylsulfonyl)piperazin-2-yl]ethyl}pyridin-3-yl)-L-phenylalaninamide], which IC50 is on record?
**A.** 8.9 nM

**Q.** O=C(C[C@@H](c1ccc(F)cc1)c1cc(F)cc(F)c1)Nc1cncc(F)c1CC[C@H]1CNCCN1S(=O)(=O)N1CCCC1 [Example 323, (3S)-3-(3,5-difluorophenyl)-3-(4-fluorophenyl)-N-(5-fluoro-4-{2-[(2S)-1-(pyrrolidin-1-ylsulfonyl)piperazin-2-yl]ethyl}pyridin-3-yl)propanamide] was tested. Which IC50 did it give?
**A.** 4.8 nM

**Q.** For COCC1CNC[C@H](CCc2c(F)cccc2NC(=O)[C@@H](N)[C@@H](c2ccc(F)cc2)c2cc(F)cc(F)c2)N1S(=O)(=O)C1CC1 (stereo partly drawn) [Example 241, (βS)-N-(2-{2-[(2S)-1-(cyclopropylsulfonyl)-6-(methoxymethyl)piperazin-2-yl]ethyl}-3-fluorophenyl)-β-(3,5-difluorophenyl)-4-fluoro-L-phenylalaninamide], which IC50 is on record?
**A.** 39 nM

**Q.** Which IC50 does the source give for COC(=O)N[C@H](C(=O)Nc1cncc(F)c1CC[C@@H]1CNCCN1S(C)(=O)=O)[C@@H](c1ccc(F)cc1)c1cc(F)cc(F)c1 [Example 49, methyl ((1S,2S)-1-(3,5-difluorophenyl)-3-((5-fluoro-4-(2-((R)-1-(methylsulfonyl)piperazin-2-yl)ethyl)pyridin-3-yl)amino)-1-(4-fluorophenyl)-3-oxopropan-2-yl)carbamate] here?
**A.** 1700 nM

**Q.** For COc1ccc([C@H](c2ccc(Cl)cc2)[C@H](N)C(=O)Nc2cccc(F)c2CC[C@H]2CNC[C@H](C)N2S(C)(=O)=O)cn1 [Example 164, (βS)-4-chloro-N-(3-fluoro-2-{2-[(2S,6S)-6-methyl-1-(methylsulfonyl)piperazin-2-yl]ethyl}phenyl)-β-(6-methoxypyridin-3-yl)-L-phenylalaninamide], which IC50 is on record?
**A.** 37 nM

**Q.** Which IC50 does the source give for COC(=O)N[C@H](C(=O)Nc1cccc(F)c1CC[C@H]1CNC[C@H](C)N1S(=O)(=O)c1ccccc1)[C@@H](c1ccc(Cl)cc1)c1ccc(OC)nc1 [Example 119, (βS)-4-chloro-N-(3-fluoro-2-{2-[(2S,6S)-6-methyl-1-(phenylsulfonyl)piperazin-2-yl]ethyl}phenyl)-Nα-(methoxycarbonyl)-β-(6-methoxypyridin-3-yl)-L-phenylalaninamide] here?
**A.** 9.1 nM

**Q.** For C[C@@H]1CNC[C@H](CCc2c(F)cccc2NC(=O)[C@@H](N)[C@@H](Cc2ccc(F)cc2)c2ccc(Cl)cc2)N1S(=O)(=O)c1ccccc1 [Example 195, (βS)-4-chloro-β-(4-fluorobenzyl)-N-(3-fluoro-2-{2-[(2S,6R)-6-methyl-1-(phenylsulfonyl)piperazin-2-yl]ethyl}phenyl)-L-phenylalaninamide], which IC50 is on record?
**A.** 77 nM

**Q.** Which IC50 does the source give for COC(=O)N[C@H](C(=O)Nc1cncc(F)c1CC[C@H]1CNC[C@H](C)N1S(=O)(=O)C1CC1)[C@@H](c1ccc(Cl)cc1)c1cccc(F)c1 [Example 11, Methyl ((1S,2S)-1-(4-chlorophenyl)-3-((4-(2-((2S,6S)-1-(cyclopropylsulfonyl)-6-methylpiperazin-2-yl)ethyl)-5-fluoropyridin-3-yl)amino)-1-(3-fluorophenyl)-3-oxopropan-2-yl)carbamate] here?
**A.** 11 nM

**Q.** With COC(=O)N[C@H](C(=O)Nc1cccc(F)c1CC[C@H]1CNCCN1S(=O)(=O)c1ccccc1)[C@@H](c1ccc(Cl)cc1)C1CC(C)(C)OC(C)(C)C1 [Example 77, (βR)-4-chloro-N-(3-fluoro-2-{2-[(2S)-1-(phenylsulfonyl)piperazin-2-yl]ethyl}phenyl)-Nα-(methoxycarbonyl)-β-(2,2,6,6-tetramethyltetrahydro-2H-pyran-4-yl)-L-phenylalaninamide] as the compound, how does the IC50 read?
**A.** 18 nM

**Q.** CCOC(=O)N[C@H](C(=O)Nc1cccc(F)c1CC[C@H]1CNC[C@@H](C)N1S(=O)(=O)c1ccccc1)[C@@H](c1ccc(Cl)cc1)C1CCOCC1 [Example 148, (βR)-4-chloro-Nα-(ethoxycarbonyl)-N-(3-fluoro-2-{2-[(2S,6R)-6-methyl-1-(phenylsulfonyl)piperazin-2-yl]ethyl}phenyl)-β-(tetrahydro-2H-pyran-4-yl)-L-phenylalaninamide] was tested. Which IC50 did it give?
**A.** 8.8 nM

**Q.** For C[C@@H]1C[C@H]([C@H](c2ccc(F)cc2)[C@H](N)C(=O)Nc2cccc(F)c2CC[C@H]2CNC[C@@H](C)N2S(=O)(=O)c2ccccc2)C[C@H](C)O1 [Example 370, (2S,3R)-2-amino-3-((2R,4r,6S)-2,6-dimethyltetrahydro-2H-pyran-4-yl)-N-(3-fluoro-2-(2-((2S,6R)-6-methyl-1-(phenylsulfonyl)piperazin-2-yl)ethyl)phenyl)-3-(4-fluorophenyl)propanamide], which IC50 is on record?
**A.** 7.5 nM

**Q.** For C[C@@H]1CNC[C@@H](CCc2c(F)cccc2NC(=O)CC(c2ccc(F)cc2)c2ccc(F)cc2)N1S(=O)(=O)c1ccccc1 [Example 91, N-(3-fluoro-2-{2-[(2R,6R)-6-methyl-1-(phenylsulfonyl)piperazin-2-yl]ethyl}phenyl)-3,3-bis(4-fluorophenyl) propanamide], which IC50 is on record?
**A.** 1700 nM

**Q.** COC(=O)N[C@H](C(=O)Nc1cccc(F)c1CC[C@H]1CNC[C@H](C)N1S(=O)(=O)c1ccccc1)[C@@H](c1ccc(F)cc1)C1CCOCC1 [Example 7, Methyl ((2S,3R)-1-((3-fluoro-2-(2-((2S,6S)-6-methyl-1-(phenylsulfonyl)piperazin-2-yl)ethyl)phenyl)amino)-3-(4-fluorophenyl)-1-oxo-3-(tetrahydro-2H-pyran-4-yl)propan-2-yl)carbamate] was tested. Which IC50 did it give?
**A.** 6 nM

**Q.** With COC(=O)N[C@H](C(=O)Nc1cccc(F)c1CC[C@H]1CNCCN1S(=O)(=O)c1ccccc1)[C@@H](c1ccc(Cl)cc1)C1CCOC(C)(C)C1 (stereo partly drawn) [Example 76, (βR)-4-chloro-β-(2,2-dimethyltetrahydro-2H-pyran-4-yl)-N-(3-fluoro-2-{2-[(2S)-1-(phenylsulfonyl)piperazin-2-yl]ethyl}phenyl)-Nα-(methoxycarbonyl)-L-phenylalaninamide] as the compound, how does the IC50 read?
**A.** 9.4 nM

**Q.** How did the IC50 turn out when COC(=O)NC(C(=O)NC1CC(O)CC1CC[C@H]1CNCCN1S(=O)(=O)c1ccccc1)C(c1ccc(F)cc1)c1ccc(F)cc1 (stereo partly drawn) [Example 357, Methyl ((2R)-1,1-bis(4-fluorophenyl)-3-((4-hydroxy-2-(2-((S)-1-(phenylsulfonyl)piperazin-2-yl)ethyl)cyclopentyl)amino)-3-oxopropan-2-yl)carbamate] was run?
**A.** 820 nM

**Q.** For CC(C)(C)c1ccc(OCC(=O)N2CCNC[C@@H]2CCc2c(F)cncc2NC(=O)C[C@@H](c2ccc(F)cc2)c2cc(F)cc(F)c2)cc1 [Example 349, (3S)-N-[4-(2-{(2S)-1-[(4-tert-butylphenoxy)acetyl]pipe-razin-2-yl}ethyl)-5-fluoropyridin-3-yl]-3-(3,5-difluorophenyl)-3-(4-fluorophenyl)propanamide], which IC50 is on record?
**A.** 1500 nM

**Q.** COC(=O)N[C@H](C(=O)Nc1cccc(F)c1CC[C@H]1CNC[C@H](C)N1S(=O)(=O)C1CC1)[C@@H](c1ccc(Cl)cc1)C1CCOCC1 [Example 12, Methyl (1R,2S)-1-(4-chlorophenyl)-3-(2-(2-((2S,6S)-1-(cyclopropylsulfonyl)-6-methylpiperazin-2-yl)ethyl)-3-fluorophenylamino)-3-oxo-1-(tetrahydro-2H-pyran-4-yl)propan-2-ylcarbamate] was tested. Which IC50 did it give?
**A.** 18 nM

**Q.** With C[C@@H]1C[C@](c2ccc(Cl)cc2)([C@H](N)C(=O)Nc2cccc(F)c2CC[C@H]2CNC[C@H](C)N2S(=O)(=O)c2ccccc2)C[C@H](C)O1 [Example 300, (S)-2-amino-2-((2R,4r,6S)-4-(4-chlorophenyl)-2,6-dimethyltetrahydro-2H-pyran-4-yl)-N-(3-fluoro-2-(2-((2S,6S)-6-methyl-1-(phenylsulfonyl)piperazin-2-yl)ethyl)phenyl)acetamide] as the compound, how does the IC50 read?
**A.** 98 nM

Same assay, conditions: MT4-GFP cells infected with HIV-1 H9IIIB; 50% normal human serum; mean of at least two independent experiments; read-out: Cell-based IP

**Q.** For “methyl ((S)-1-((2R,4r,6S)-4- (4-chlorophenyl)-2,6- dimethyltetrahydro-2H- pyran-4-yl)-2-((3-fluoro-2-(2- ((2S,6S)-6-methyl-1- (phenylsulfonyl)piperazin-2- yl)ethyl)phenyl)amino)-2- oxoethyl)carbamate [Example 299]”, which IC50 is on record?
**A.** 16 nM
